From US11407715B2, “Substituted indoline derivatives as dengue viral replication inhibitors” (JANSSEN PHARMACEUTICALS, INC., priority 2017, dated 2022)

Tests used:
in vitro = settings: African green monkey
DENV-2 16681 strain = test: microbe, parasite or virus in culture; type: cell-based, Dengue virus; settings: for EC50: DENV-2 16681 eGFP, Vero cells, MOI 0.5, 3 days; for SI: SI=CC50/EC50, DENV-2 antiviral assay
Vero cells = settings: African green monkey
[1] = Dengue virus, DENV2, Vero, 72 h

COc1cc(NC(C(=O)N2CCc3ccc(OC(F)(F)F)cc32)c2ccc(Cl)cc2)cc(OCC(C)CC(=O)O)c1 (single isomer, unassigned) [Compound 4A]
CC50 (in vitro): 9 µM | EC50 (DENV-2 16681 strain): 2.9 nM | SI (DENV-2 16681 strain): 3090

COc1cc(NC(C(=O)N2CCc3ccc(OC(F)(F)F)cc32)c2ccc(Cl)cc2)cc(OCC(C)CC(=O)O)c1 (racemic) [Compound 4, 4-(3-((1-(4-chlorophenyl)-2-oxo-2-(6-(trifluoromethoxy)indolin-1-yl)ethyl)amino)-5-methoxyphenoxy)-3-methylbutanoic acid]
CC50 (in vitro): 10 µM | EC50 (DENV-2 16681 strain; [1]): 0.14 nM | SI (DENV-2 16681 strain): 73900

COc1cc(NC(C(=O)N2CCc3ccc(OC(F)(F)F)cc32)c2ccc(Cl)cc2OC)cc(OCCC(C)(C)C(=O)O)c1 (racemic) [Compound 18, 4-(3-((1-(4-chloro-2-methoxyphenyl)-2-oxo-2-(6-(trifluoromethoxy)indolin-1-yl)ethyl)amino)-5-methoxyphenoxy)-2,2-dimethylbutanoic acid]
CC50 (in vitro): 11 µM | EC50 (DENV-2 16681 strain; [1]): 0.49 nM | SI (DENV-2 16681 strain): 26100

COc1cc(NC(C(=O)N2CCc3cc(OC)c(C(F)(F)F)cc32)c2ccc(Cl)cc2)cc(OCCC(C)(C)C(=O)O)c1 (single isomer, unassigned) [Compound 21A]
CC50 (in vitro): 11 µM | EC50 (DENV-2 16681 strain): 16 nM | SI (DENV-2 16681 strain): 687

COc1cc(NC(C(=O)N2CCc3cc(OC)c(C(F)(F)F)cc32)c2ccc(Cl)cc2)cc(OC2CC(C(=O)O)C2)c1 (stereo not drawn) [Compound 23A]
CC50 (in vitro): 11 µM | EC50 (DENV-2 16681 strain): 34 nM | SI (DENV-2 16681 strain): 321

COc1cc(NC(C(=O)N2CCc3ccc(OC(F)(F)F)cc32)c2ccc(Cl)cc2)cc(OC23CC(C(=O)O)(C2)C3)c1 (single isomer, unassigned) [Compound 9A]
CC50 (in vitro): 11 µM | EC50 (DENV-2 16681 strain): 90 nM | SI (DENV-2 16681 strain): 125

COc1cc(NC(C(=O)N2CCc3cc(OC)c(C(F)(F)F)cc32)c2ccc(Cl)cc2)cc(OCC2CC2C(=O)O)c1 (stereo not drawn) [Compound 22AA]
CC50 (in vitro): 13 µM | EC50 (DENV-2 16681 strain): 16 nM | SI (DENV-2 16681 strain): 798

COc1cc(NC(C(=O)N2CCc3cc(OC)c(C(F)(F)F)cc32)c2ccc(Cl)cc2)cc(OCCC(C)(C)C(=O)O)c1 (racemic) [Compound 21, 4-(3-((1-(4-chlorophenyl)-2-(5-methoxy-6-(trifluoromethyl)indolin-1-yl)-2-oxoethyl)amino)-5-methoxyphenoxy)-2,2-dimethylbutanoic acid]
CC50 (in vitro): 15 µM | EC50 (DENV-2 16681 strain; [1]): 1.1 nM | SI (DENV-2 16681 strain): 11000

COc1cc(NC(C(=O)N2CCc3ccc(OC(F)(F)F)cc32)c2ccc(Cl)cc2)cc(OCC2CC2C(=O)O)c1 (stereo not drawn) [Compound 6AA]
CC50 (in vitro): 8.3 µM | EC50 (DENV-2 16681 strain): 0.74 nM | SI (DENV-2 16681 strain): 8870

COc1cc(CCCCC(=O)O)cc(NC(C(=O)N2CCc3ccc(OC(F)(F)F)cc32)c2ccc(Cl)cc2)c1 (racemic) [Compound 14, 5-(3-((1-(4-chlorophenyl)-2-oxo-2-(6-(trifluoromethoxy)indolin-1-yl)ethyl)amino)-5-methoxyphenyl)pentanoic acid]
CC50 (in vitro): 9.6 µM | EC50 (DENV-2 16681 strain; [1]): 0.23 nM | SI (DENV-2 16681 strain): 50200

COc1cc(NC(C(=O)N2CCc3ccc(OC(F)(F)F)cc32)c2ccc(Cl)cc2)cc(OCC2(CC(=O)O)CC2)c1 (racemic) [Compound 5, 2-(1-((3-((1-(4-chlorophenyl)-2-oxo-2-(6-(trifluoromethoxy)indolin-1-yl)ethyl)amino)-5-methoxyphenoxy)methyl)cyclopropyl)acetic acid]
CC50 (in vitro): 9.7 µM | EC50 (DENV-2 16681 strain; [1]): 0.92 nM | SI (DENV-2 16681 strain): 11300

COc1cc(NC(C(=O)N2CCc3cc(OC)c(C(F)(F)F)cc32)c2ccc(Cl)cc2)cc(O[C@H]2C[C@@H](C(=O)O)C2)c1 (stereo partly drawn) [Compound 23, (1s,3s)-3-(3-((1-(4-chlorophenyl)-2-(5-methoxy-6-(trifluoromethyl)indolin-1-yl)-2-oxoethyl)amino)-5-methoxyphenoxy)cyclobutene-carboxylic Acid]
CC50 (in vitro): 12 µM | EC50 (DENV-2 16681 strain; [1]): 0.093 nM | SI (DENV-2 16681 strain): 116424

COc1cc(NC(C(=O)N2CCc3ccc(OC(F)(F)F)cc32)c2ccc(Cl)cc2OC)cc(OCCC(C)C(=O)O)c1 (racemic) [Compound 17, 4-(3-((1-(4-chloro-2-methoxyphenyl)-2-oxo-2-(6-(trifluoromethoxy)indolin-1-yl)ethyl)amino)-5-methoxyphenoxy)-2-methylbutanoic acid]
CC50 (in vitro): 13 µM | EC50 (DENV-2 16681 strain; [1]): 0.18 nM | SI (DENV-2 16681 strain): 100043

COc1cc(NC(C(=O)N2CCc3ccc(OC(F)(F)F)cc32)c2ccc(Cl)cc2)cc(OCCC(=O)O)c1 (single isomer, unassigned) [Compound 12A]
CC50 (in vitro): 10 µM | EC50 (DENV-2 16681 strain): 38 nM | SI (DENV-2 16681 strain): 267

COc1cc(NC(C(=O)N2CCc3ccc(OC(F)(F)F)cc32)c2ccc(Cl)cc2)cc(OCC23CC(C(=O)O)(C2)C3)c1 (racemic) [Compound 9, 3-((3-((1-(4-chlorophenyl)-2-oxo-2-(6-(trifluoro-methoxy)indolin-1-yl)ethyl)amino)-5-methoxyphenoxy)methyl)bicyclo[1.1.1]pentane-1-carboxylic acid]
CC50 (in vitro): 9.8 µM | EC50 (DENV-2 16681 strain; [1]): 0.7 nM | SI (DENV-2 16681 strain): 14700

COc1cc(NC(C(=O)N2CCc3ccc(OC(F)(F)F)cc32)c2ccc(Cl)cc2)cc(OCCC(C)(C)C(=O)O)c1 (racemic) [Compound 2, 4-(3-((1-(4-chlorophenyl)-2-oxo-2-(6-(trifluoromethoxy)indolin-1-yl)ethyl)amino)-5-methoxyphenoxy)-2,2-dimethylbutanoic acid]
CC50 (in vitro): 12 µM | EC50 (DENV-2 16681 strain; [1]): 0.62 nM | SI (DENV-2 16681 strain): 19200

COc1cc(NC(C(=O)N2CCc3ccc(OC(F)(F)F)cc32)c2ccc(Cl)cc2)cc(OCCC2(C(=O)O)CC2)c1 (racemic) [Compound 3, 1-(2-(3-((1-(4-chlorophenyl)-2-oxo-2-(6-(trifluoromethoxy)indolin-1-yl)ethyl)amino)-5-methoxyphenoxy)ethyl)cyclopropane-1-carboxylic acid]
CC50 (in vitro): 10 µM | EC50 (DENV-2 16681 strain; [1]): 0.5 nM | SI (DENV-2 16681 strain): 17700

COc1cc(NC(C(=O)N2CCc3cc(F)c(OC(F)(F)F)cc32)c2ccc(Cl)cc2)cc(OC2CC(C(=O)O)C2)c1 (stereo not drawn) [Compound 27, ((1s,3s)-3-(3-((1-(4-chlorophenyl)-2-(5-fluoro-6-(trifluoromethoxy)indolin-1-yl)-2-oxoethyl)amino)-5-methoxyphenoxy)cyclobutene-carboxylic Acid]
CC50 (in vitro): 13 µM | EC50 (DENV-2 16681 strain): 0.067 nM | SI (DENV-2 16681 strain): 149640

COc1cc(NC(C(=O)N2CCc3ccc(OC(F)(F)F)cc32)c2ccc(Cl)cc2)cc(OC2CC(C(=O)O)C2)c1 (stereo not drawn) [Compound 7]
CC50 (in vitro): 12 µM | EC50 (DENV-2 16681 strain): 0.49 nM | SI (DENV-2 16681 strain): 14600

COc1cc(CCCC(=O)O)cc(NC(C(=O)N2CCc3ccc(OC(F)(F)F)cc32)c2ccc(Cl)cc2)c1 (single isomer, unassigned) [Compound 15A]
CC50 (in vitro): 8.4 µM | EC50 (DENV-2 16681 strain): 49 nM | SI (DENV-2 16681 strain): 171

COc1cc(NC(C(=O)N2CCc3ccc(OC(F)(F)F)cc32)c2ccc(Cl)cc2)cc(OCC2CC(C(=O)O)C2)c1 (stereo not drawn) [Compound 11, (1r,3r)-3-((3-((1-(4-chlorophenyl)-2-oxo-2-(6-(trifluoromethoxy)indolin-1-yl)ethyl)amino)-5-methoxyphenoxy)methyl)cyclobutanecarboxylic acid]
CC50 (Vero cells): 12 µM | EC50 (DENV-2 16681 strain): 0.13 nM | SI (DENV-2 16681 strain): 97100

COc1cc(NC(C(=O)N2CCc3ccc(OC(F)(F)F)cc32)c2ccc(Cl)cc2)cc(OCC2(F)CC2C(=O)O)c1 (stereo not drawn) [Compound 29BA]
CC50 (Vero cells): 9.8 µM | EC50 (DENV-2 16681 strain): 3.4 nM | SI (DENV-2 16681 strain): 2890
